The inhibition is the relative decrease from the control value, in per cent. Usually EC50 stands for the midpoint of the concentration-response curve.

For this assay, the system named is RSV strain A2. The experiment in a line: RSV antiviral cytoprotection assay in Hep2 cells (96-well and 384-well format, Cell TiterGlo read-out). It is filed as cell-based, Respiratory Syncytial Virus (RSV). The note with it: human respiratory syncytial virus; for inhibition at 0.5 µM: HEp-2, 0.5 uM, RSV-induced cytopathic effect in Hep2 cells, calculated from fitted dose response curve, normalized to 0% and 100%; for EC50: HEp-2, RSV-induced cytopathic effects, Hep2 cells, class symbols.

On to `Cc1cn2nc([C@@H]3CCCCN3C(=O)c3ccnc(-n4cnnc4)c3)cc2nc1N1CC[C@H](N)C1` [Compound 388], for which the inhibition at 0.5 µM was 100% and the EC50 lay within 0.1 to 100 nM.
On to `COc1c(C)cccc1C(=O)N1CCCC[C@H]1c1cc2nc(N3CC[C@H](N)C3)c(C)cn2n1` [Compound 320], for which the inhibition at 0.5 µM is 100% and the 50% effective concentration (EC50) is 0.1 to 100 nM.
With `Cc1cc(C(=O)N2CCCC[C@H]2c2cc3nc(N4CC[C@H](N)C4)c(C)cn3n2)c(C(F)(F)F)o1` [Compound 399], the inhibition at 0.5 µM was 100% and the EC50 was 0.1 to 100 nM.
On to `CS(=O)(=O)Nc1ccc(Cl)cc1C(=O)N1CCCC[C@H]1c1cc2nc(N3CCC3)cc(CO)n2n1` [Compound 254], for which the inhibition at 0.5 µM is 90% and the concentration for a half-maximal effect (EC50) was in the range of 0.1 to 100 nM.
Turning to `CS(=O)(=O)Nc1ccc(Cl)cc1C(=O)N1CCCC[C@H]1c1cc2nc(N3CC[C@@H](O)C3)cc(N3CC(N)C3)n2n1` [Compound 132], the inhibition at 0.5 µM is 97% and the EC50 lay in the range of 0.1 to 100 nM.
`C#Cc1cccc(C(=O)N2CCCC[C@H]2c2cc3nc(N4CC[C@H](N)C4)c(C)cn3n2)c1` [Compound 289]: the inhibition at 0.5 µM is 100% and the EC50 was 0.1 to 100 nM.
Consider `Cc1cn2nc([C@@H]3CCCCN3C(=O)c3cc(Cl)ccc3NS(C)(=O)=O)cc2nc1N1CC(Oc2ccccn2)C1` [Compound 212], for which the inhibition at 0.5 µM was 88% and the EC50 fell in the range of 101 to 1000 nM.
In the case of `CS(=O)(=O)Nc1ccc(Cl)cc1C(=O)N1CCCC[C@H]1c1cc2nc(N3CC[C@@H](O)C3)cc(N3CCOCC3)n2n1` [Compound 71], the inhibition at 0.5 µM is 95% and the EC50 lay within 0.1 to 100 nM.
On to `Cc1ccc(NS(C)(=O)=O)c(C(=O)N2CCCC[C@H]2c2cc3nc(C)c(C)c(N4CCCC4)n3n2)c1` [Compound 98], for which the inhibition at 0.5 µM is 98% and the EC50 was in the range of 0.1 to 100 nM.
With `Cc1cn2nc([C@@H]3CCCCN3C(=O)c3cnn(C4CCCC4)c3)cc2nc1N1CC[C@H](N)C1` [Compound 366], the inhibition at 0.5 µM is 100% and the concentration for a half-maximal effect (EC50) lay within 0.1 to 100 nM.
Regarding `Cc1cn2nc([C@@H]3CC[C@H](C)CN3C(=O)c3cc(Cl)ccc3NS(C)(=O)=O)cc2nc1N1CCC1` [Compound 138], the inhibition at 0.5 µM was 100% and the EC50 lay in the range of 0.1 to 100 nM.
For `Cc1cc(N2CC(F)C2)nc2cc([C@@H]3CCCCN3C(=O)c3cc(Cl)ccc3NS(C)(=O)=O)nn12` [Compound 47], in that order: 100% and 0.1 to 100 nM.
As to `CS(=O)(=O)Nc1ccc(Cl)cc1C(=O)N1CCCC[C@H]1c1cc2nc(N3CC(N)C3)cc(N3CC(N)C3)n2n1` [Compound 131], the inhibition at 0.5 µM is 100% and the EC50 fell in the range of 0.1 to 100 nM.
As for `CS(=O)(=O)Nc1ccc(Cl)cc1C(=O)N1CCCC[C@H]1c1cc2nc(N3CC(O)C3)cc(N3CCOCC3)n2n1` [Compound 69], the inhibition at 0.5 µM was 100% and the EC50 was 0.1 to 100 nM.
`Cc1ccc(C(=O)N2CCCC[C@H]2c2cc3nc(N4CC[C@H](N)C4)c(C)cn3n2)s1` [Compound 286]: the inhibition at 0.5 µM was 100% and the concentration for a half-maximal effect (EC50) is 0.1 to 100 nM.
Turning to `CCc1ocnc1C(=O)N1CCCC[C@H]1c1cc2nc(N3CC[C@H](N)C3)c(C)cn2n1` [Compound 284], the inhibition at 0.5 µM was 97.8% and the EC50 was in the range of 0.1 to 100 nM.
For `Cc1cn2nc([C@@H]3CCCCN3C(=O)c3cc(Cl)ccc3NS(C)(=O)=O)cc2nc1N1CCC[C@H]1CO` [Compound 210], in that order: 81% and 101 to 1000 nM.
As to `COCc1ccc(C(=O)N2CCCC[C@H]2c2cc3nc(N4CC[C@H](N)C4)c(C)cn3n2)cc1` [Compound 321], the inhibition at 0.5 µM was 100% and the 50% effective concentration (EC50) fell in the range of 0.1 to 100 nM.
Turning to `Cc1ccn2c(F)c(C(=O)N3CCCC[C@H]3c3cc4nc(N5CC[C@H](N)C5)c(C)cn4n3)nc2c1` [Compound 403], the inhibition at 0.5 µM was 100% and the EC50 was 0.1 to 100 nM.

These data come from patent publication US9238039B2, “Pyrazolo[1,5-A]pyrimidines for antiviral treatment” (Gilead Sciences, Inc., priority 2010, dated 2016).
